According to US9981972B2, “N-hydroxy bicyclic hydantoin carbamates as tools for identification of serine hydrolase targets” (ABIDE THERAPEUTICS, INC., priority 2014, dated 2018):
“Also recorded” adds a separate entry of the source.

Legend:
Type in all cases: biochemical
[1] = test system: FP-sensitive SHs in the mouse brain membrane proteome; test: Gel-based competitive ABPP in vitro, mouse brain membrane proteome, anti-targets; settings: for Anti-target(s) 0.1 μM: SHs with at least 50% inhibition at 0.1 μM compound; for Anti-target(s) 1 μM: SHs with at least 50% inhibition at 1 μM compound; for Anti-target(s) 10 μM: SHs with at least 50% inhibition at 10 μM compound; for Anti-target(s) 100 μM: SHs with at least 50% inhibition at 100 μM compound
Protocol: (§1) Assay Overview: The purpose of this assay was to determine whether test compounds can inhibit LYPLA1 and LYPLA2 in a complex proteomic lysate and to assess anti-target inhibition using a competitive activity-based proteomic profiling (ABPP) assay. In this assay, a complex proteome endogenously expressing LYPLA1/2 was incubated with test compound followed by reaction with a rhodamine-conjugated fluorophosphonate (FP-Rh) serine-hydrolase specific activity-based probe. The reaction products were separated by SDS-PAGE and visualized in-gel using a flatbed fluorescence scanner. The percentage activity remaining was determined by measuring the integrated optical density of the bands. […] Percent inhibition was calculated relative to a DMSO (no compound) control.
(§2) Protocol Summary: Mouse brain membrane proteome (50 μL reaction volume, 1 mg/mL in DPBS) was treated with 0.1-100 μM test compound (1 μL of a 50× stock in DMSO) for 30 minutes at 37° C. FP-Rh (1 μL of 50× stock in DMSO, Thermo #88318) was added to a final concentration of 2 μM. The reactions were incubated for 30 minutes at 25° C., quenched with 16 μL 4×SDS-PAGE loading buffer (reducing), separated by SDS-PAGE and visualized by in-gel fluorescent scanning. The percentage activity remaining was determined by measuring the integrated optical density of the bands relative to a DMSO-only (no compound) control. Assay Cutoff: Compounds with ≥50% inhibition of targets at 1 μM test compound concentration were considered active.
(§3) N-Hydroxy bicyclic hydantoin carbamates (Compounds 1-20) listed in Table 1 were subjected to gel-based competitive ABPP screening to assess SH reactivity against more than 20 FP-sensitive SHs visible by 1D SDS-PAGE separation and fluorescent detection in the mouse brain proteome (see FIG. 1). […] Compound treatment ([…], 30 minutes) was followed by labeling with SH-specific ABPP probe FP-Rh (2 μM, 30 minutes), 1D-SDS-PAGE, and in-gel fluorescent visualization of FP-labeled proteins. Assignment of LYPLA1/2 bands was based on correlation of molecular weights, expression and inhibition profiles with LC-MS/MS data and recombinant enzyme expression. Proteins were listed as anti-targets if at least 50% inhibition was observed as quantified relative to the DMSO control.
(§4) Compounds 1-20 were subjected to gel-based competitive ABPP profiling to assess potency and selectivity against several dozen FP-sensitive SHs in the mouse brain membrane proteome, which endogenously expresses LYPLA1 and LYPLA2, as well a diversity of potential SH anti-targets. Compounds were tested at 100 μM, 10 μM, 1 μM, and/or 0.1 μM compound concentration.

[2] = target: T1, LYPLA1 (Mus musculus, UniProt P97823); test: Gel-based competitive ABPP in vitro, mouse brain membrane proteome; settings: 30 min, one replicate; for inhibition at 0.1 µM: 0.1 μM compound, read-out: LYPLA1 % INH 0.1 μM; for inhibition at 1 µM: 1 μM compound, read-out: LYPLA1 % INH 1 μM; for inhibition at 10 µM: 10 μM compound, read-out: LYPLA1 % INH 10 μM; for inhibition at 100 µM: 100 μM compound, read-out: LYPLA1 % INH 100 μM
T1 construct: a complex proteome endogenously expressing LYPLA1/2 was incubated with test compound; from tissue; host or cells: mouse brain, membrane fraction
Protocol: as §1, §2, §3, §4

[3] = target: T2, LYPLA2 (Mus musculus, UniProt Q9WTL7); test: as above; settings: 30 min, one replicate; for inhibition at 0.1 µM: 0.1 μM compound, read-out: LYPLA2 % INH 0.1 μM; for inhibition at 1 µM: 1 μM compound, read-out: LYPLA2 % INH 1 μM; for inhibition at 10 µM: 10 μM compound, read-out: LYPLA2 % INH 10 μM; for inhibition at 100 µM: 100 μM compound, read-out: LYPLA2 % INH 100 μM
T2 construct: a complex proteome endogenously expressing LYPLA1/2 was incubated with test compound; from tissue; host or cells: mouse brain, membrane fraction
Protocol: as §1, §2, §3, §4

T1 sequence (P97823 whole entry): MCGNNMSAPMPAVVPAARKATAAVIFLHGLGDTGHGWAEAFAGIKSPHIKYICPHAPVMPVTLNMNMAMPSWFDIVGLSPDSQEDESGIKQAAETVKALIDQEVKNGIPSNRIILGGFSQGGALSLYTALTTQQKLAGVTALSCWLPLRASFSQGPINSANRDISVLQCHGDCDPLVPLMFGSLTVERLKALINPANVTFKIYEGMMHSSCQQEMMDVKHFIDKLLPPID
T2 sequence (Q9WTL7 whole entry): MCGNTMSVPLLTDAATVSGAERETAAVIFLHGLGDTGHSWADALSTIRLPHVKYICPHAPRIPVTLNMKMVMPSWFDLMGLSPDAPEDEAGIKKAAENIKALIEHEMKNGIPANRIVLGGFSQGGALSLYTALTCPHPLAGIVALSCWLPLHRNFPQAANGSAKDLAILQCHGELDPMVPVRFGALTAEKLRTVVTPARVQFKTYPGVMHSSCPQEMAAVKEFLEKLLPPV

SMILES	Anti-target(s) 0.1 μM [1]	Anti-target(s) 1 μM [1]	Anti-target(s) 10 μM [1]	Anti-target(s) 100 μM [1]	inhibition at 0.1 µM [2] [%]	inhibition at 1 µM [2] [%]	inhibition at 10 µM [2] [%]	inhibition at 100 µM [2] [%]	inhibition at 0.1 µM [3] [%]	inhibition at 1 µM [3] [%]	inhibition at 10 µM [3] [%]	inhibition at 100 µM [3] [%]
CC(C)(C)OC(=O)N1CCN2C(=O)N(OC(=O)N3CCC(C(=O)Nc4ccccc4)CC3)C(=O)C2C1 (stereo not drawn) [Compound 19, tert-butyl 1,3-dioxo-2-(4-(phenylcarbamoyl)piperidine-1-carbonyloxy)hexahydroimidazo[1,5-a]pyrazine-7(1H)-carboxylate]	ABHD6	ABHD6	ABHD6	FAAH,; also recorded: ABHD6	0	0	10	50	0	0	0	25
O=C(Cc1ccccc1)N1CCN2C(=O)N(OC(=O)N3CCC(CCc4ccc(Cl)cc4)CC3)C(=O)C2C1 (stereo not drawn) [Compound 6, 1,3-dioxo-7-(2-phenylacetyl)hexahydroimidazo[1,5-a]pyrazin-2(3H)-yl 4-(4-chlorophenethyl)piperidine-1-carboxylate]	ABHD6	FAAH,; also recorded: ABHD6	FAAH,; also recorded: MAGL,; also recorded: ABHD6	FAAH,; also recorded: MAGL,; also recorded: ABHD6	25	95	100	100	25	95	100	100
COc1ccc(C(=O)N2CCN3C(=O)N(OC(=O)N4CCC(CCc5ccc(Cl)cc5)CC4)C(=O)C3C2)cc1 (stereo not drawn) [Compound 11, 7-(4-methoxybenzoyl)-1,3-dioxohexahydroimidazo[1,5-a]pyrazin-2(3H)-yl 4-(4-chlorophenethyl)piperidine-1-carboxylate]	–	ABHD6	FAAH,; also recorded: ABHD12,; also recorded: MAGL,; also recorded: ABHD6	FAAH,; also recorded: ABHD12,; also recorded: MAGL,; also recorded: ABHD6	–	90	100	100	–	90	100	100
Cc1ccc(C(=O)N2CCN3C(=O)N(OC(=O)N4CCC(CCc5ccc(Cl)cc5)CC4)C(=O)C3C2)cc1 (stereo not drawn) [Compound 8, 7-(4-methylbenzoyl)-1,3-dioxohexahydroimidazo[1,5-a]pyrazin-2(3H)-yl 4-(4-chlorophenethyl)piperidine-1-carboxylate]	–	ABHD6	FAAH,; also recorded: ABHD12,; also recorded: ABHD6	FAAH,; also recorded: ABHD12,; also recorded: MAGL,; also recorded: ABHD6	–	75	100	100	–	75	100	100
O=C(ON1C(=O)C2CN(CCc3ccccc3)CCN2C1=O)N1CCC(CCc2ccc(Cl)cc2)CC1 (stereo not drawn) [Compound 12, 1,3-dioxo-7-phenethylhexahydroimidazo[1,5-a]pyrazin-2(3H)-yl 4-(4-chlorophenethyl)piperidine-1-carboxylate]	ABHD6	ABHD6	FAAH,; also recorded: ABHD4,; also recorded: MAGL,; also recorded: ABHD6	FAAH,; also recorded: ABHD4,; also recorded: MAGL,; also recorded: ABHD6	0	25	95	100	0	25	95	100
CC(C)(C)OC(=O)N1CCN2C(=O)N(OC(=O)N3CCCCC3)C(=O)C2C1 (stereo not drawn) [Compound 14, tert-butyl 1,3-dioxo-2-(piperidine-1-carbonyloxy)hexahydroimidazo[1,5-a]pyrazine-7(1H)-carboxylate]	ABHD6	ABHD6	ABHD6	APEH,; also recorded: ABHD6	0	0	0	25	0	0	0	25
COC(=O)C1CCN(C(=O)ON2C(=O)C3CN(C(=O)OC(C)(C)C)CCN3C2=O)CC1 (stereo not drawn) [Compound 15, 1-(7-(tert-butoxycarbonyl)-1,3-dioxohexahydroimidazo[1,5-a]pyrazin-2(3H)-yl) 4-methyl piperidine-1,4-dicarboxylate]	ABHD6	ABHD6	ABHD6	ABHD6	0	0	0	25	0	0	0	25
CC(C)(C)OC(=O)N1CCN2C(=O)N(OC(=O)N3CCN(CCc4ccccc4)CC3)C(=O)C2C1 (stereo not drawn) [Compound 17, tert-butyl 1,3-dioxo-2-(4-phenethylpiperazine-1-carbonyloxy)hexahydroimidazo[1,5-a]pyrazine-7(1H)-carboxylate]	ABHD6	ABHD6	ABHD6	FAAH,; also recorded: ABHD12,; also recorded: ABHD6	0	0	75	90	0	0	50	75
CCN(C(=O)C1CCN(C(=O)ON2C(=O)C3CN(C(=O)OC(C)(C)C)CCN3C2=O)CC1)c1ccccc1 (stereo not drawn) [Compound 20, tert-butyl 2-(4-(ethyl(phenyl)carbamoyl)piperidine-1-carbonyloxy)-1,3-dioxohexahydroimidazo[1,5-a]pyrazine-7(1H)-carboxylate]	ABHD6	ABHD6	ABHD6	ABHD6	0	10	100	100	0	10	75	100
CN(C)c1ccc(C(=O)N2CCN3C(=O)N(OC(=O)N4CCC(CCc5ccc(Cl)cc5)CC4)C(=O)C3C2)cc1 (stereo not drawn) [Compound 10, 7-(4-(dimethylamino)benzoyl)-1,3-dioxohexahydroimidazo[1,5-a]pyrazin-2(3H)-yl4-(4-chlorophenethyl)piperidine-1-carboxylate]	–	–	–	–	–	75	100	100	–	75	100	100
